Reference: patent US8889704B2 (Array BioPharma Inc., priority 2011, dated 2014)
Where a name gives a salt, the structure may show the parent alone.

Key:
Type in all cases: biochemical
[1] = target: PIM-1 (Homo sapiens, UniProt P11309); test: Enzyme PIM-1 Assay ([33P]ATP incorporation into PIM2tide, filter plate); details: averaged IC50; 35 μM ATP, 7.5 μM PIM2tide, 0.25 nM PIM-1, 60 min at 22° C.
Description: (§1) The assay for the determination of PIM-1 activity is based on the incorporation of [^33P]PO4 from [γ-^33P]ATP into PIM2tide substrate and capture of the radiolabeled peptide onto a Whatman P81 (phosphocellulose) filter plate. The amount of radiolabeled product is then measured by liquid scintillation counting. The final buffer conditions were as follows: 20 mM K^+MOPS, pH 7.4, 10 mM MgCl2, 0.005% Tween-20, 1 mM DTT. Assay mixtures contained 35 μM [γ-^33P]ATP (20 μCi/mL), 7.5 μM PIM2tide and 0.25 nM PIM-1 in a total volume of 50 μL. Incubations were carried out for 60 min at 22° C. and quenched with 75 μL of 200 mM H3PO4, filtered through a Whatman P81 plate and washed (1×200 μL and 5×100 μL) with 200 mM H3PO4. Fifty μL of liquid scintillation cocktail were then added per well, and the plate was counted for 30 s/well using a TopCount NXT.
(§2) Compounds were prepared at 50× the final concentration in DMSO by conducting 3-fold serial dilutions from a 500-μM intermediate dilution to give a 10-point dosing curve having a high dose of 10 μM. One-μL aliquots of these were then transferred to the assay mixtures above to give a final concentration of DMSO of 2%. A standard or reference compound was typically included on each assay plate to validate that plate. For each plate, percent of control (POC) values were calculated for each well. IC50 values were estimated from the POC values using a standard 4-parameter logistic model. The IC50 is defined as the concentration of inhibitor at which the POC equals 50 for the fitted curve.

[2] = target: recombinant rat PIM-3 (Rattus norvegicus, UniProt O70444); test: PIM-3 Assay (as Example A); details: averaged IC50; 30 μM ATP, 3.75 μM PIM2tide, 0.5 nM PIM-3
Description: as §1, §2
Assay was performed as described in Example A, using 30 μM [γ-^33P]ATP (20 μCi/mL), 3.75 μM PIM2tide and 0.5 nM recombinant rat PIM-3 in place of PIM-1.

[3] = target: T1, GST-tagged recombinant full-length human Pim-2 (Homo sapiens, UniProt Q9P1W9); test: PIM-2 Assay (as Example A); details: averaged IC50; 4 μM ATP, 1.0 μM PIM2tide, 1.5 nM Pim-2
T1 construct: GST-tagged recombinant full-length human Pim-2; GST
Description: as §1, §2
Assay was performed as described in Example A, using 4 μM [γ-^33P]ATP (20 μCi/mL), 1.0 μM PIM2tide and 1.5 nM GST-tagged recombinant full-length human Pim-2 in place of PIM-1.

T1 sequence (Q9P1W9 whole entry): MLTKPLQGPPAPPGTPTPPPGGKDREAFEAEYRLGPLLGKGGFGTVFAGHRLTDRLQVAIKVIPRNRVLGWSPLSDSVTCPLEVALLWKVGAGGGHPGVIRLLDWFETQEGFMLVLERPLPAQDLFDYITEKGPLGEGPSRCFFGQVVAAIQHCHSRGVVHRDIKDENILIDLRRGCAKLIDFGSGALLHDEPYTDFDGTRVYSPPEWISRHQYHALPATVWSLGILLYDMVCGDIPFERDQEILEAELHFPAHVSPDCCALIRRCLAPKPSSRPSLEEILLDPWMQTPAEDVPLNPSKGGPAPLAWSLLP
Sequence of PIM-1 (P11309 whole entry, species assumed): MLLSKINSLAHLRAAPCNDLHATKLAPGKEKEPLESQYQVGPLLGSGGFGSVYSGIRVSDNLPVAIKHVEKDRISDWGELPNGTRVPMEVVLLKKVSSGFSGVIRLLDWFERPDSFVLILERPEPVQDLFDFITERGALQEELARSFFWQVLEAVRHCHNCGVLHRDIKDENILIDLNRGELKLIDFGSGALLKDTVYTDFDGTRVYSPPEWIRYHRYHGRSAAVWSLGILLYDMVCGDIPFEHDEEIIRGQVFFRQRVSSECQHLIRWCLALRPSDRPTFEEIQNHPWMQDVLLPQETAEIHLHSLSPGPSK

| SMILES | IC50 [1] [nM] | IC50 [2] [nM] | IC50 [3] [nM] |
| --- | --- | --- | --- |
| COc1ccc2ccc(-c3nnc4ccc([C@@H](N5CC[C@H](N)C5)C(F)(F)F)cn34)nc2c1C [Example 124, (S)-1-((R)-2,2,2-trifluoro-1-(3-(7-methoxy-8-methylquinolin-2-yl)-[1,2,4]triazolo[4,3-a]pyridin-6-yl)ethyl)pyrrolidin-3-amine hydrochloride] | 0.21 | 0.7 | > 100 |
| O[C@@H]1CN([C@H](c2ccc3nnc(-c4ccc5cccc(C6CC6)c5n4)n3c2)C(F)(F)F)C[C@H]1O [Example 78, (3R,4R)-1-((R)-1-(3-(8-cyclopropylquinolin-2-yl)-[1,2,4]triazolo[4,3-a]pyridin-6-yl)-2,2,2-trifluoroethyl)pyrrolidine-3,4-diol] | 0.24 | 10 | > 100 |
| COc1cc(C)cc2ccc(-c3nnc4ccc([C@@H](N5CC[C@H](N)C5)C(F)(F)F)cn34)nc12 [Example 127, (S)-1-((R)-2,2,2-trifluoro-1-(3-(8-methoxy-6-methylquinolin-2-yl)-[1,2,4]triazolo[4,3-a]pyridin-6-yl)ethyl)pyrrolidin-3-amine hydrochloride] | 3.28 | 11 | > 100 |
| Cc1cc(OC(C)C)c2nc(-c3nnc4ccc([C@@H](N5CC[C@H](N)C5)C(F)(F)F)cn34)ccc2c1 [Example 128, (S)-1-((R)-2,2,2-trifluoro-1-(3-(8-isopropoxy-6-methylquinolin-2-yl)-[1,2,4]triazolo[4,3-a]pyridin-6-yl)ethyl)pyrrolidin-3-amine hydrochloride] | 0.58 | 0.7 | > 100 |
| CC(C)C(=O)Nc1ccc2ccc(-c3nnc4ccc([C@@H](N5CC[C@H](N)C5)C(F)(F)F)cn34)nc2c1 [Example 70, N-(2-(6-((R)-1-((S)-3-aminopyrrolidin-1-yl)-2,2,2-trifluoroethyl)-[1,2,4]triazolo[4,3-a]pyridin-3-yl)quinolin-7-yl)isobutyramide] | 0.18 | 0.3 | > 100 |
| N[C@H]1CCN(C(c2ccc3nnc(-c4ccc5ccc(Br)cc5n4)n3c2)C(F)(F)F)C1 (stereo partly drawn) [Example 2, (3S)-1-(1-(3-(7-bromoquinolin-2-yl)-[1,2,4]triazolo[4,3-a]pyridin-6-yl)-2,2,2-trifluoroethyl)pyrrolidin-3-amine dihydrochloride] | 0.19 | 1 | 74 |
| COc1cc2nc(-c3nnc4ccc([C@@H](N5CC[C@H](N)C5)C(F)(F)F)cn34)ccc2cc1F [Example 113, (S)-1-((R)-2,2,2-trifluoro-1-(3-(6-fluoro-7-methoxyquinolin-2-yl)-[1,2,4]triazolo[4,3-a]pyridin-6-yl)ethyl)pyrrolidin-3-amine hydrochloride] | 0.05 | 2.3 | > 100 |
| CN[C@H]1CCN([C@H](c2ccc3nnc(-c4ccc5cccc(OC(C)C)c5n4)n3c2)C(F)(F)F)C1 [Example 36, (S)—N-methyl-1-((R)-2,2,2-trifluoro-1-(3-(8-isopropoxyquinolin-2-yl)-[1,2,4]triazolo[4,3-a]pyridin-6-yl)ethyl)pyrrolidin-3-amine dihydrochloride] | 0.18 | 2 | 32 |
| COCCOc1ccc2ccc(-c3nnc4ccc([C@@H](N5CC[C@H](N)C5)C(F)(F)F)cn34)nc2c1 [Example 148, (S)-1-((R)-2,2,2-trifluoro-1-(3-(7-(2-methoxyethoxy)quinolin-2-yl)-[1,2,4]triazolo[4,3-a]pyridin-6-yl)ethyl)pyrrolidin-3-amine dihydrochloride] | 0.34 | 1.2 | > 100 |
| COCCOc1cc(F)cc2ccc(-c3nnc4ccc([C@@H](N5CC[C@H](N)C5)C(F)(F)F)cn34)nc12 [Example 98, (S)-1-((R)-2,2,2-trifluoro-1-(3-(6-fluoro-8-(2-methoxyethoxy)quinolin-2-yl)-[1,2,4]triazolo[4,3-a]pyridin-6-yl)ethyl)pyrrolidin-3-amine hydrochloride] | 0.38 | 1.8 | > 100 |
| CCNC(=O)Cc1cccc2ccc(-c3nnc4ccc([C@@H](N5CC[C@H](N)C5)C(F)(F)F)cn34)nc12 [Example 235, 2-(2-(6-((R)-1-((S)-3-aminopyrrolidin-1-yl)-2,2,2-trifluoroethyl)-[1,2,4]triazolo[4,3-a]pyridin-3-yl)quinolin-8-yl)-N-ethylacetamide dihydrochloride] | 7.81 | 33 | > 1000 |
| CCc1cccc2ccc(-c3nnc4ccc([C@@H](N5CC[C@H](N)C5)C(F)(F)F)cn34)nc12 [Example 37, (S)-1-((R)-1-(3-(8-ethylquinolin-2-yl)-[1,2,4]triazolo[4,3-a]pyridin-6-yl)-2,2,2-trifluoroethyl)pyrrolidin-3-amine dihydrochloride] | 0.11 | 0.8 | 22 |
| Cn1cc(-c2ccc3ccc(-c4nnc5ccc(C(N6CC[C@H](N)C6)C(F)(F)F)cn45)nc3c2)cn1 (stereo partly drawn) [Example 4, (3S)-1-(2,2,2-trifluoro-1-(3-(7-(1-methyl-1H-pyrazol-4-yl)quinolin-2-yl)-[1,2,4]triazolo[4,3-a]pyridin-6-yl)ethyl)pyrrolidin-3-amine trihydrochloride] | 0.84 | 12 | 451 |
| N[C@@H]1CCN([C@H](c2ccc3nnc(-c4ccc5ccc(C6CC6)cc5n4)n3c2)C(F)(F)F)C1 [Example 61, (R)-1-((R)-1-(3-(7-cyclopropylquinolin-2-yl)-[1,2,4]triazolo[4,3-a]pyridin-6-yl)-2,2,2-trifluoroethyl)pyrrolidin-3-amine dihydrochloride] | 0.59 | 3.7 | > 100 |
| CC(C)(C)NC(=O)c1ccc2ccc(-c3nnc4ccc([C@@H](N5CC[C@@H](N)C5)C(F)(F)F)cn34)nc2c1 [Example 54, 2-(6-((R)-1-((R)-3-aminopyrrolidin-1-yl)-2,2,2-trifluoroethyl)-[1,2,4]triazolo[4,3-a]pyridin-3-yl)-N-tert-butylquinoline-7-carboxamide dihydrochloride] | 0.41 | 0.6 | 67 |
| CCOc1cc2nc(-c3nnc4ccc([C@@H](N5CCC(N)(CC)C5)C(F)(F)F)cn34)ccc2cc1F (single isomer, unassigned; diastereomer 2) [Example 253, dihydrochloride] | 0.78 | 2.2 | 776 |
| N[C@H]1CCN([C@H](c2ccc3nnc(-c4ccc5ccc(O[C@@H]6CCC[C@H]6O)cc5n4)n3c2)C(F)(F)F)C1 (single isomer, unassigned; diastereomer 2) [Example 320, di-hydrochloride] | 0.14 | 0.3 | 111 |
| COC[C@@H](C)Oc1cccc2ccc(-c3nnc4ccc([C@@H](N5CC[C@H](N)C5)C(F)(F)F)cn34)nc12 [Example 140, (S)-1-((R)-2,2,2-trifluoro-1-(3-(8-((R)-1-methoxypropan-2-yloxy)quinolin-2-yl)-[1,2,4]triazolo[4,3-a]pyridin-6-yl)ethyl)pyrrolidin-3-amine dihydrochloride] | 0.12 | 0.5 | 54 |
| N[C@H]1CCN(C(c2ccc3nnc(-c4ccc5ccc(C(F)(F)F)cc5n4)n3c2)C(F)(F)F)C1 (stereo partly drawn) [Example 29, (3S)-1-(2,2,2-trifluoro-1-(3-(7-(trifluoromethyl)quinolin-2-yl)-[1,2,4]triazolo[4,3-a]pyridin-6-yl)ethyl)pyrrolidin-3-amine dihydrochloride] | 5.12 | 47 | > 1000 |
| CCOc1cc2nc(-c3nnc4ccc([C@@H](N5CC[C@](C)(N)C5)C(F)(F)F)cn34)ccc2cc1F [Example 247, (S)-1-((R)-1-(3-(7-ethoxy-6-fluoroquinolin-2-yl)-[1,2,4]triazolo[4,3-a]pyridin-6-yl)-2,2,2-trifluoroethyl)-3-methylpyrrolidin-3-amine dihydrochloride] | 0.41 | 1.2 | 392 |
| Cc1cccc2ccc(-c3nnc4ccc([C@@H](N5CC[C@H](N)C5)C(F)(F)F)cn34)nc12 [Example 183, (S)-1-((R)-2,2,2-trifluoro-1-(3-(8-methylquinolin-2-yl)-[1,2,4]triazolo[4,3-a]pyridin-6-yl)ethyl)pyrrolidin-3-amine dihydrochloride] | 0.27 | 1.2 | > 100 |
